Data reported in patent publication US12287344B2, “Fret-based method to measure seeding activity of misfolded protein species in biological samples” (MAX-DELBRÜCK-CENTRUM FÜR MOLEKULARE MEDIZIN IN DER …, priority 2018, dated 2025).

Legend:
Ex1Q48-CyPet/-YPet = test: FRASE assay: effect of added preformed fibrils/seeds on Ex1Q48-CyPet/-YPet polymerization; assay type: biochemical, human; conditions: non-polyQ fibrillar aggregates produced in vitro; sensor 1:1 mixture, total conc. 1.2 μM
Procedure: (B) Effects of small, preformed Ex1Q48 seeds (1250 kDa) on Ex1Q48-CyPet and -YPet (1:1 mixture, total conc. 1.2 μM) co-aggregation. Data are mean±SEM (n=5).
(D) Effects of non-polyQ fibrils on Ex1Q48-CyPet and -YPet (1:1 mixture, total conc. 1.2 μM) co-aggregation. Data are mean±SD of triplicates.
Spontaneous Ex1Q48 aggregation was initiated by addition of 14 U PreScission protease (GE Healthcare) per nmol purified GST-Ex1Q48 fusion protein (2 μM). The aggregation reaction was performed in 50 mM Tris-HCl pH 7.4, 150 mM NaCl, 1 mM EDTA and 1 mM DTT at 25° C. and constant agitation (450 rpm) for 24 h. […] K2Q48P6 protein for seeding experiments was prepared from GST-K2Q48P6 fusion protein using the same protocol. ΔN17Q48+6PRD protein for seeding experiments was prepared from GST-ΔN17Q48+6PRD fusion protein using the same protocol. ΔN17Q40+6PRD protein for seeding experiments was prepared from GST-ΔN17Q40+6PRD fusion protein using the same protocol. Synthetic human IAPP was aggregated as described previously (Gao et al., 2015). Lyophilized α-Syn was dissolved in PBS at 500 μM and centrifuged (4° C., 265.000×g) after a 5 min sonication step to remove aggregated material. The supernatant was incubated for 7 d at 37° C. under constant shaking in the presence of a single glass bead. Tau40 was aggregated for 6 d at 37° C. under constant shaking in 100 mM sodium acetate, pH 7.4, and 1 mM DTT in the presence of heparin. Synthetic human Δβ1-42 was dissolved in 100 mM NaOH and diluted to 200 μM in low salt buffer (10 mM K3PO4, pH 7.4, 10 mM NaCl). Aggregation was performed for 6 h at 37° C. under constant agitation.
(§1) Purified GST-Ex1Q48-CyPet and GST-Ex1Q48-YPet were diluted in aggregation buffer at an equimolar ratio to a final concentration of 1.2 μM (0.6 μM each) with 14 U PSP per nmol sensor proteins if not stated otherwise. […] For quantification of seeding-competent HTT species in tissue samples, the sensor-protein mixture was supplemented with up to 10% (v/v) tissue homogenate. Fluorescence signals were measured every 20 min following a 5 s pulse of vertical shaking with a Tecan M200 fluorescence plate reader at 25° C. for up to 48 h. CyPet donor fluorescence was measured at excitation (Ex): 435 nm/emission (Em): 475 nm; YPet acceptor fluorescence at Ex: 500 nm/Em: 530 nm; the FRET channel (DA) was recorded at Ex: 435 nm/Em: 530 nm. Raw signals were processed by subtracting the background fluorescence of unlabeled Ex1Q48 in all channels. […] In brief, the FRET efficiency E (in %) was calculated as follows: E=(DA-cDxDD-cAxAA)/AA with DD=donor channel signal and AA=acceptor channel signal.
Seeding effects (Δt50 [h]) were quantified by subtracting the t50 values (time at half-maximal FRET efficiency) of the respective sample from the negative control. […]

sensor proteins = test: Sensor protein aggregation in the presence of compound but in the absence of HTTex1Q48 seeds; assay type: biochemical, human; conditions: compound present, no HTTex1Q48 seeds; residual concentration
Procedure: Purified GST-Ex1Q48-CyPet and GST-Ex1Q48-YPet were diluted in aggregation buffer at an equimolar ratio to a final concentration of 1.2 μM (0.6 μM each) with 14 U PSP per nmol sensor proteins if not stated otherwise. The solution was then mixed with preformed aggregates of Ex1Q48 (seeds) at varying concentrations with or without prior sonication and transferred to a black 384-well plate (with a final reaction volume of 30 μl per well and a sensor protein concentration of 1.2 μM). For quantification of seeding-competent HTT species in tissue samples, the sensor-protein mixture was supplemented with up to 10% (v/v) tissue homogenate. Fluorescence signals were measured every 20 min following a 5 s pulse of vertical shaking with a Tecan M200 fluorescence plate reader at 25° C. for up to 48 h. CyPet donor fluorescence was measured at excitation (Ex): 435 nm/emission (Em): 475 nm; YPet acceptor fluorescence at Ex: 500 nm/Em: 530 nm; the FRET channel (DA) was recorded at Ex: 435 nm/Em: 530 nm. Raw signals were processed by subtracting the background fluorescence of unlabeled Ex1Q48 in all channels. […] In brief, the FRET efficiency E (in %) was calculated as follows: E=(DA-cDxDD-cAxAA)/AA with DD=donor channel signal and AA=acceptor channel signal. […]

HTTex1Q48 seeds = target: T1, HTTex1Q48 seeds (Homo sapiens, UniProt P42858, INS38QQQQQQQQQQQQQQQQQQQQQQQQQQQ/P65L/V80A); test: FRASE assay of HTTex1Q48 seeds pre-incubated with compound; assay type: biochemical; conditions: preformed, sonicated HTTex1Q48 aggregates incubated with compound in 200-fold molar excess at 25° C. for 20 hours; compared to seeds incubated with DMSO
T1 construct: GST (N, cleaved yes); made in house; host or cells: E. coli BL21-CodonPlus-RP
Procedure: Httex1Q48 seeds were pre-incubated with 04 in 200-fold molar excess at 25° C. for 20 h and subsequently analyzed for their seeding activity using FRASE assays. (A) Aggregation profiles of sensor proteins in the presence or absence of O4 treated seeds and respective controls. Data are mean±SD of technical triplicates.
as §1, with “signal. […]” for “signal.”

HTTex1Q48 = HTTex1Q48 (Homo sapiens, UniProt P42858, INS38QQQQQQQQQQQQQQQQQQQQQQQQQQQ/P65L/V80A); conditions: previously shown (Wagner et al., 2018); cited from earlier work
Sequence of HTTex1Q48 (P42858 with tags, fused parts or gaps with the stated changes): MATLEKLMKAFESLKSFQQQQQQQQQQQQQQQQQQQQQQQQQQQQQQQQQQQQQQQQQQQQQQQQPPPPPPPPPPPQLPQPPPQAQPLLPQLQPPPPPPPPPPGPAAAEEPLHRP

T1 sequence (P42858 with tags, fused parts or gaps with the stated changes): as above

influence on Ex1Q48-CyPet/-YPet polymerization (Ex1Q48-CyPet/-YPet)	HTTex1Q48 seeding activity (HSA, Δt50) after pre-incubation of seeds (HTTex1Q48 seeds)	Compound	effect on sensor protein aggregation (sensor proteins)	interference with the aggregation of HTTex1Q48 (HTTex1Q48)
did not significantly influence		amyloid-β: synthetic human Aβ1-42 aggregated in vitro		
	strongly reduces	O=c1cc2oc3cc(O)c(-c4ccc(O)cc4O)cc3nc-2cc1-c1ccc(O)cc1O [O4]	no significant effect	interfere with the aggregation
did not significantly influence		α-synuclein		
did not significantly influence		tau: recombinant Tau40 protein aggregated in the presence of heparin		
did not significantly influence		IAPP: synthetic human islet amyloid polypeptide aggregated in vitro (KCNTATCATQRLANFLVHSSNNFGAILSSTNVGSNTY)		
